For 19 compounds, T/C results are on record in PubChem BioAssay AID248 (DTP/NCI, 2004).

Several values for one entry are separate records, joined by “and”; a condition that tells them apart may be missing. Equal entries are not always repeated. Inconclusive results and toxic doses are left out.

The test deals with L1210 leukemia ip in BDF1 mice, survival T/C. As to the kind of experiment: NCI In Vivo Anticancer Drug Screen. Data for tumor model L1210 Leukemia (intraperitoneal) in B6D2F1 (BDF1) mice. The note with it: endpoint: mean survival time, higher = longer survival. The method in brief: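 Antitumor effect is assessed in tumor-bearing animals. Survival in the compound arm is compared with a vehicle-dosed control arm and expressed as their quotient.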

Where [1] appears, read: dose: 100.0 mg/kg/injection, schedule: Q01DX001 (ip), vehicle: saline.
Where [2] appears, read: dose: 200.0 mg/kg/injection, schedule: Q01DX001 (ip), vehicle: saline.
[3] abbreviates: dose: 400.0 mg/kg/injection, schedule: Q01DX001 (ip), vehicle: saline.
[4] abbreviates: dose: 75.0 mg/kg/injection, schedule: Q01DX001 (ip), vehicle: other.
Setting [5] is: dose: 150.0 mg/kg/injection, schedule: Q01DX001 (ip), vehicle: other.
The mark [6] stands for this setting: dose: 50.0 mg/kg/injection, schedule: Q01DX001 (ip), vehicle: carboxymethylcellulose (CMC).
[7] abbreviates: dose: 50.0 mg/kg/injection, schedule: Q01DX001 (ip), vehicle: saline.
The mark [8] stands for this setting: dose: 200.0 mg/kg/injection, schedule: Q01DX001 (ip), vehicle: carboxymethylcellulose (CMC).
The mark [9] stands for this setting: dose: 400.0 mg/kg/injection, schedule: Q01DX001 (ip), vehicle: carboxymethylcellulose (CMC).
[10] abbreviates: dose: 200.0 mg/kg/injection, schedule: Q01DX001 (ip), vehicle: Klucel (hydroxypropylcellulose) (HPC).
[11] abbreviates: dose: 100.0 mg/kg/injection, schedule: Q04DX002 (ip), vehicle: saline with Tween-80.

Turning to `CC(CN1CC(=O)NC(=O)C1)N1CC(=O)NC(=O)C1.[Cl][Pt][Cl]` (centres undefined), the T/C is 106 % of control (dose: 12.5 mg/kg/injection, schedule: Q04DX003 (ip), vehicle: water); 97 % of control (dose: 25.0 mg/kg/injection, schedule: Q04DX003 (ip), vehicle: water); 109 % of control (dose: 50.0 mg/kg/injection, schedule: Q04DX003 (ip), vehicle: water); 108 % of control (dose: 100.0 mg/kg/injection, schedule: Q01DX009 (ip), vehicle: water); 106 % of control and 107 % of control (dose: 100.0 mg/kg/injection, schedule: Q04DX003 (ip), vehicle: water); 121 % of control (dose: 200.0 mg/kg/injection, schedule: Q01DX009 (ip), vehicle: water). The T/C reads like this: (dose: 200.0 mg/kg/injection, schedule: Q04DX003 (ip), vehicle: water) 101 % of control; (dose: 400.0 mg/kg/injection, schedule: Q01DX009 (ip), vehicle: water) 160 % of control; (dose: 400.0 mg/kg/injection, schedule: Q04DX003 (ip), vehicle: water) 118 % of control.
In the case of `Cc1cc2nc3c(nc2cc1C)C1CC(Br)CCC1N3` (centres undefined), the T/C is 97 % of control under setting [1], 95 % of control under setting [2] and 91 % of control under setting [3].
For the compound `C=CC(C)C/C(CC)=N\NC(N)=O` (centres undefined), the T/C is 98 % of control under setting [4] and 103 % of control under setting [5].
With `CCC[CH2][Ge]([CH2]CCC)([CH2]CCC)[N]1C(=O)c2ccccc2C1=O`, the T/C reads like this: under setting [6], 102 % of control; under setting [7], 100 % of control; (dose: 100.0 mg/kg/injection, schedule: Q01DX001 (ip), vehicle: carboxymethylcellulose (CMC)) 96 % of control; under setting [1], 102 % of control; under setting [8], 103 % of control; under setting [2], 96 % of control. Besides, the T/C is, setting by setting: under setting [9], 105 % of control; under setting [3], 108 % of control.
As to `O=S(=O)(Nc1c(Cl)c(Cl)c(Cl)c(Cl)c1NS(=O)(=O)c1ccccc1)c1ccccc1`, the T/C is 101 % of control (dose: 100.0 mg/kg/injection, schedule: Q01DX009 (ip), vehicle: Klucel (hydroxypropylcellulose) (HPC)); 94 % of control (dose: 100.0 mg/kg/injection, schedule: Q04DX003 (ip), vehicle: Klucel (hydroxypropylcellulose) (HPC)); 92 % of control (dose: 200.0 mg/kg/injection, schedule: Q01DX009 (ip), vehicle: Klucel (hydroxypropylcellulose) (HPC)); 100 % of control (dose: 200.0 mg/kg/injection, schedule: Q04DX003 (ip), vehicle: Klucel (hydroxypropylcellulose) (HPC)); 95 % of control (dose: 400.0 mg/kg/injection, schedule: Q04DX003 (ip), vehicle: Klucel (hydroxypropylcellulose) (HPC)).
For the compound `Cc1cc([N+](=O)[O-])c(Cl)cc1N`, the T/C is 93 % of control (dose: 100.0 mg/kg/injection, schedule: Q04DX003 (ip), vehicle: gum acacia); 95 % of control (dose: 200.0 mg/kg/injection, schedule: Q04DX003 (ip), vehicle: gum acacia); 95 % of control (dose: 400.0 mg/kg/injection, schedule: Q04DX003 (ip), vehicle: gum acacia).
On to `CC(=O)OC(C)C1C2=C(C(=O)CC1(C)O)C(=O)c1c(ccc(-c3ccc4c(c3O)C(=O)C3=C(C4=O)C(C(C)OC(C)=O)C(C)(O)CC3=O)c1O)C2=O` (centres undefined), for which the T/C reads like this: (dose: 6.25 mg/kg/injection, schedule: Q01DX009 (ip), vehicle: saline with Tween-80) 111 % of control; (dose: 12.5 mg/kg/injection, schedule: Q01DX009 (ip), vehicle: saline with Tween-80) 109 % of control.
Take `O=C(O)C1Nc2ccccc2NC1=O` (centres undefined): the T/C by setting is: (dose: 100.0 mg/kg/injection, schedule: Q01DX001 (ip), vehicle: Klucel (hydroxypropylcellulose) (HPC)) 100 % of control; under setting [10], 94 % of control; (dose: 400.0 mg/kg/injection, schedule: Q01DX001 (ip), vehicle: Klucel (hydroxypropylcellulose) (HPC)) 106 % of control.
Turning to `NS(=O)(=O)c1ccc(N=Cc2ccccc2)cc1`, the T/C is, setting by setting: (dose: 100.0 mg/kg/injection, schedule: Q01DX009 (ip), vehicle: saline with Tween-80) 89 % of control; (dose: 200.0 mg/kg/injection, schedule: Q01DX009 (ip), vehicle: saline with Tween-80) 92 % of control; (dose: 400.0 mg/kg/injection, schedule: Q01DX009 (ip), vehicle: saline with Tween-80) 94 % of control.
Consider `O=C(O)C(c1ccccc1)S(=O)(=O)C(C(=O)O)c1ccccc1` (centres undefined), for which the T/C under setting [1] is 95 % of control, the T/C under setting [2] is 101 % of control and the T/C under setting [3] was 95 % of control.
For the compound `CC(=O)OC1CCC2(C)C(CCC3C2CCC2(C)C3CC3OC(CCC(C)(C)O)C(C)C32)C1` (centres undefined), the T/C is 92 % of control (dose: 100.0 mg/kg/injection, schedule: Q01DX001 (ip), vehicle: saline with Tween-80); 92 % of control (dose: 200.0 mg/kg/injection, schedule: Q01DX001 (ip), vehicle: saline with Tween-80); 92 % of control (dose: 400.0 mg/kg/injection, schedule: Q01DX001 (ip), vehicle: saline with Tween-80).
Consider `CCCCCCCCOC(=O)COc1cccc(C)c1`, for which the T/C was 103 % of control under setting [11]; 100 % of control (dose: 200.0 mg/kg/injection, schedule: Q04DX002 (ip), vehicle: saline with Tween-80); 100 % of control (dose: 400.0 mg/kg/injection, schedule: Q04DX002 (ip), vehicle: saline with Tween-80).
`COc1cc(CC(=O)O)c(Br)cc1C`: the T/C by setting is: (dose: 100.0 mg/kg/injection, schedule: Q01DX009 (ip), vehicle: saline) 97 % of control; (dose: 100.0 mg/kg/injection, schedule: Q04DX003 (ip), vehicle: saline with Tween-80) 101 % of control; (dose: 200.0 mg/kg/injection, schedule: Q01DX009 (ip), vehicle: saline) 109 % of control; (dose: 200.0 mg/kg/injection, schedule: Q04DX003 (ip), vehicle: saline with Tween-80) 104 % of control; (dose: 400.0 mg/kg/injection, schedule: Q01DX009 (ip), vehicle: saline) 92 % of control; (dose: 400.0 mg/kg/injection, schedule: Q04DX003 (ip), vehicle: saline with Tween-80) 108 % of control.
Turning to `O=S1(=O)/C(=C\C2CCCCC2)c2c1c(-c1ccccc1)c1ccccc1c2-c1ccccc1`, the T/C is, setting by setting: under setting [6], 86 % of control; under setting [8], 92 % of control; under setting [9], 89 % of control.
On to `O=C(/C=C\c1ccccc1)NCCCCNC(=O)/C=C/c1ccccc1`, for which the T/C is, setting by setting: under setting [1], 97 % of control; under setting [2], 105 % of control; under setting [3], 87 % of control.
Consider `O=C1C2C3c4ccccc4C(C2C(=O)N1c1ccc(Cl)cc1)[n+]1ccccc13` (centres undefined), for which the T/C by setting is: under setting [4], 96 % of control; under setting [5], 103 % of control.
As for `O=C1c2cc([N+](=O)[O-])ccc2NC1(c1c[nH]c2ccccc12)c1c[nH]c2ccc(Br)cc12` (centres undefined), the T/C reads like this: under setting [7], 96 % of control; under setting [1], 96 % of control; under setting [2], 96 % of control; under setting [3], 93 % of control.
`O=C(C[n+]1cccc2ccccc21)c1ccc(-c2ccccc2)cc1`: the T/C under setting [10] is 96 % of control.
In the case of `O=c1[nH][n+]([O-])cc2c(C(O)=C(O)O)c[nH]c12`, the T/C was 94 % of control (dose: 25.0 mg/kg/injection, schedule: Q04DX002 (ip), vehicle: saline with Tween-80); 98 % of control (dose: 50.0 mg/kg/injection, schedule: Q04DX002 (ip), vehicle: saline with Tween-80); 105 % of control under setting [11].
